Each block holds one compound with its values, some of them ahead of it. Activity calls are given as the source filed them. No cut-off for these calls is given here.
Legend:
MGC-803 [1] = experiment: Induction of apoptosis in human MGC803 cells assessed as PARP cleavage at 20 uM incubated for 24 hrs by Western blot analysis; format: functional, cell-based
HGC-27 = experiment: Cytotoxicity against human HGC27 cells after 72 hrs by CCK8 assay; format: functional, cell-based; settings: for IC50: HGC-27, 72 h
MGC-803 [2] = experiment: Induction of apoptosis in human MGC803 cells assessed as viable cells at 20 uM incubated for 48 hrs by Annexin V-FITC/propidium iodide staining-based flow cytometric analysis (reference value: 97.15%); format: functional; settings: MGC-803, 48 h, read-out: Activity
MGC-803 [3] = experiment: Induction of cell cycle arrest in human MGC803 cells assessed as accumulation of cells at S phase at 20 uM incubated for 24 hrs propidium iodide-A staining-based flow cytometric analysis (reference value: 17%); format: functional
MGC-803 [4] = experiment: Induction of cell cycle arrest in human MGC803 cells assessed as accumulation of cells at G1 phase at 5 uM incubated for 24 hrs propidium iodide-A staining-based flow cytometric analysis (reference value: 52%); format: functional
MGC-803 [5] = experiment: Induction of apoptosis in human MGC803 cells assessed as late apoptotic cells at 5 uM incubated for 48 hrs by Annexin V-FITC/propidium iodide staining-based flow cytometric analysis (reference value: 0.84%); format: functional
MGC-803 [6] = experiment: Induction of apoptosis in human MGC803 cells assessed as early apoptotic cells at 20 uM incubated for 48 hrs by Annexin V-FITC/propidium iodide staining-based flow cytometric analysis (reference value: 1.83%); format: functional
MGC-803 [7] = experiment: Induction of apoptosis in human MGC803 cells assessed as necrotic cells at 2 uM incubated for 48 hrs by Annexin V-FITC/propidium iodide staining-based flow cytometric analysis (reference value: 0.18%); format: functional
MGC-803 [8] = experiment: Induction of cell cycle arrest in human MGC803 cells assessed as accumulation of cells at S phase at 2 uM incubated for 24 hrs propidium iodide-A staining-based flow cytometric analysis (reference value: 17%); format: functional
MGC-803 [9] = experiment: Induction of cell cycle arrest in human MGC803 cells assessed as accumulation of cells at G2/M phase at 2 uM incubated for 24 hrs propidium iodide-A staining-based flow cytometric analysis (reference value: 31%); format: functional
MGC-803 [10] = experiment: Induction of apoptosis in human MGC803 cells assessed as viable cells at 10 uM incubated for 48 hrs by Annexin V-FITC/propidium iodide staining-based flow cytometric analysis (reference value: 97.15%); format: functional; settings: MGC-803, 48 h, read-out: Activity
MGC-803 [11] = experiment: Induction of cell cycle arrest in human MGC803 cells assessed as accumulation of cells at G1 phase at 2 uM incubated for 24 hrs propidium iodide-A staining-based flow cytometric analysis (reference value: 52%); format: functional
MGC-803 [12] = experiment: Induction of apoptosis in human MGC803 cells assessed as late apoptotic cells at 10 uM incubated for 48 hrs by Annexin V-FITC/propidium iodide staining-based flow cytometric analysis (reference value: 0.84%); format: functional
BGC-823 = experiment: Cytotoxicity against human BGC823 cells after 72 hrs by CCK8 assay; format: functional, cell-based; settings: for IC50: BGC-823, 72 h
MGC-803 [13] = experiment: Induction of cell cycle arrest in human MGC803 cells assessed as accumulation of cells at S phase at 5 uM incubated for 24 hrs propidium iodide-A staining-based flow cytometric analysis (reference value: 17%); format: functional
MGC-803 [14] = experiment: Effect on total STAT3 expression in human MGC803 cells at 20 uM incubated for 24 hrs by Western blot analysis; format: cell-based; settings: mgc-803, 24 h
MGC-803 [15] = experiment: Induction of apoptosis in human MGC803 cells assessed as early apoptotic cells at 10 uM incubated for 48 hrs by Annexin V-FITC/propidium iodide staining-based flow cytometric analysis (reference value: 1.83%); format: functional
MGC-803 [16] = experiment: Cytotoxicity against human MGC803 cells after 72 hrs by CCK8 assay; format: functional, cell-based; settings: for IC50: MGC-803, 72 h
MGC-803 [17] = experiment: Induction of cell cycle arrest in human MGC803 cells assessed as accumulation of cells at G2/M phase at 10 uM incubated for 24 hrs propidium iodide-A staining-based flow cytometric analysis (reference value: 31%); format: functional
MGC-803 [18] = experiment: Induction of cell cycle arrest in human MGC803 cells assessed as accumulation of cells at S phase at 10 uM incubated for 24 hrs propidium iodide-A staining-based flow cytometric analysis (reference value: 17%); format: functional
[19] = target: Signal transducer and activator of transcription 3 (Homo sapiens) (UniProt P40763); experiment: Inhibition of STAT3 phosphorylation in human MGC803 cells at 2 to 20 uM incubated for 24 hrs by Western blot analysis; format: cell-based; settings: MGC-803
Chain of Signal transducer and activator of transcription 3 (Homo sapiens) (P40763 whole entry): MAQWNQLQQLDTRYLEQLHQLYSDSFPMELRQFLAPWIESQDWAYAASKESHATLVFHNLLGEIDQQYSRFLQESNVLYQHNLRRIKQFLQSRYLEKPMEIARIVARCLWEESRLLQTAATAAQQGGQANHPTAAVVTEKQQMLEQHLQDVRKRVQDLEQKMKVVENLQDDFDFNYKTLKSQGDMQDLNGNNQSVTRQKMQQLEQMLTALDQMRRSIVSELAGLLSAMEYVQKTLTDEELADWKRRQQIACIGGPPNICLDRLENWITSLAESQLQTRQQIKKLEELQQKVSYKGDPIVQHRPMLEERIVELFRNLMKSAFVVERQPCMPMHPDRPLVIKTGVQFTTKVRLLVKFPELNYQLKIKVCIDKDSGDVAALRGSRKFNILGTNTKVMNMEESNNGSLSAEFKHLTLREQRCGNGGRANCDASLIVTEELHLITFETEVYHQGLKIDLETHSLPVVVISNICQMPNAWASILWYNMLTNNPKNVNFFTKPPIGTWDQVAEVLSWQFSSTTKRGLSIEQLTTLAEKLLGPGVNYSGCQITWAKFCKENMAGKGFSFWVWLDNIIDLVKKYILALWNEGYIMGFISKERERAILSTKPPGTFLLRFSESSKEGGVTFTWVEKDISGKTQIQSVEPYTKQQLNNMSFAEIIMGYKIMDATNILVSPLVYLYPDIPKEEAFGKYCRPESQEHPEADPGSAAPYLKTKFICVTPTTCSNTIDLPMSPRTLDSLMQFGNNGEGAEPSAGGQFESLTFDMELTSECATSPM

MGC-803 [20] = experiment: Induction of apoptosis in human MGC803 cells assessed as necrotic cells at 5 uM incubated for 48 hrs by Annexin V-FITC/propidium iodide staining-based flow cytometric analysis (reference value: 0.18%); format: functional
MGC-803 [21] = experiment: Induction of apoptosis in human MGC803 cells assessed as early apoptotic cells at 5 uM incubated for 48 hrs by Annexin V-FITC/propidium iodide staining-based flow cytometric analysis (reference value: 1.83%); format: functional
MGC-803 [22] = experiment: Induction of cell cycle arrest in human MGC803 cells assessed as accumulation of cells at G2/M phase at 20 uM incubated for 24 hrs propidium iodide-A staining-based flow cytometric analysis (reference value: 31%); format: functional
MGC-803 [23] = experiment: Induction of cell cycle arrest in human MGC803 cells assessed as accumulation of cells at G1 phase at 20 uM incubated for 24 hrs propidium iodide-A staining-based flow cytometric analysis (reference value: 52%); format: functional
MGC-803 [24] = experiment: Induction of apoptosis in human MGC803 cells assessed as late apoptotic cells at 20 uM incubated for 48 hrs by Annexin V-FITC/propidium iodide staining-based flow cytometric analysis (reference value: 0.84%); format: functional
MGC-803 [25] = experiment: Induction of apoptosis in human MGC803 cells assessed as late apoptotic cells at 2 uM incubated for 48 hrs by Annexin V-FITC/propidium iodide staining-based flow cytometric analysis (reference value: 0.84%); format: functional
MGC-803 [26] = experiment: Induction of cell cycle arrest in human MGC803 cells assessed as accumulation of cells at G1 phase at 10 uM incubated for 24 hrs propidium iodide-A staining-based flow cytometric analysis (reference value: 52%); format: functional
MGC-803 [27] = experiment: Induction of apoptosis in human MGC803 cells assessed as early apoptotic cells at 2 uM incubated for 48 hrs by Annexin V-FITC/propidium iodide staining-based flow cytometric analysis (reference value: 1.83%); format: functional
MGC-803 [28] = experiment: Induction of apoptosis in human MGC803 cells assessed as viable cells at 5 uM incubated for 48 hrs by Annexin V-FITC/propidium iodide staining-based flow cytometric analysis (reference value: 97.15%); format: functional; settings: MGC-803, 48 h, read-out: Activity
GES1 = experiment: Cytotoxicity against human GES-1 cells after 72 hrs by CCK8 assay; format: cell-based; settings: GES1, 72 h
AGS = experiment: Cytotoxicity against human AGS cells after 72 hrs by CCK8 assay; format: functional, cell-based
MGC-803 [29] = experiment: Induction of apoptosis in human MGC803 cells assessed as necrotic cells at 10 uM incubated for 48 hrs by Annexin V-FITC/propidium iodide staining-based flow cytometric analysis (reference value: 0.18%); format: functional
MGC-803 [30] = experiment: Induction of apoptosis in human MGC803 cells assessed as viable cells at 2 uM incubated for 48 hrs by Annexin V-FITC/propidium iodide staining-based flow cytometric analysis (reference value: 97.15%); format: functional; settings: MGC-803, 48 h, read-out: Activity
MGC-803 [31] = experiment: Induction of cell cycle arrest in human MGC803 cells assessed as accumulation of cells at G2/M phase at 5 uM incubated for 24 hrs propidium iodide-A staining-based flow cytometric analysis (reference value: 31%); format: functional
MGC-803 [32] = experiment: Induction of apoptosis in human MGC803 cells assessed as necrotic cells at 20 uM incubated for 48 hrs by Annexin V-FITC/propidium iodide staining-based flow cytometric analysis (reference value: 0.18%); format: functional

inhibition [19]: Active
Compound: Cc1c2c(c(O)c3c1[C@H](C)[C@@H](C)O3)/C(=C/c1ccccc1)C(=O)O2
Activity (MGC-803 [1]): Active | Activity (HGC-27): Dose-dependent effect | IC50 (HGC-27): 3400 nM | viability at 20 µM (MGC-803 [2]): 89.4% | Activity (MGC-803 [3]): 23% | Activity (MGC-803 [4]): 48% | Activity (MGC-803 [5]): 0.24% | Activity (MGC-803 [6]): 7.57% | Activity (MGC-803 [7]): 0.54% | Activity (MGC-803 [8]): 16% | Activity (MGC-803 [9]): 34% | viability at 10 µM (MGC-803 [10]): 97.1% | Activity (MGC-803 [11]): 50% | Activity (MGC-803 [12]): 0.39% | Activity (BGC-823): Dose-dependent effect | IC50 (BGC-823): 6200 nM | Activity (MGC-803 [13]): 16% | Activity (MGC-803 [14]): Toxic | Activity (MGC-803 [15]): 1.95% | Activity (MGC-803 [16]): Dose-dependent effect | IC50 (MGC-803 [16]): 7000 nM | Activity (MGC-803 [17]): 33% | Activity (MGC-803 [18]): 18% | Activity (MGC-803 [20]): 0.26% | Activity (MGC-803 [21]): 0.78% | Activity (MGC-803 [22]): 24% | Activity (MGC-803 [23]): 53% | Activity (MGC-803 [24]): 1.51% | Activity (MGC-803 [25]): 0.34% | Activity (MGC-803 [26]): 49% | Activity (MGC-803 [27]): 0.72% | viability at 5 µM (MGC-803 [28]): 98.7% | IC50 (GES1): 29000 nM | Activity (AGS): Dose-dependent effect | IC50 (AGS): 8200 nM | Activity (MGC-803 [29]): 0.59% | viability at 2 µM (MGC-803 [30]): 98.4% | Activity (MGC-803 [31]): 36% | Activity (MGC-803 [32]): 1.55%

Compound: CC(=O)O[C@H]1C(=O)[C@@]2(C)[C@H]([C@H](OC(=O)c3ccccc3)[C@]3(O)C[C@H](OC(=O)[C@H](O)[C@@H](NC(=O)c4ccccc4)c4ccccc4)C(C)=C1C3(C)C)[C@]1(OC(C)=O)CO[C@@H]1C[C@@H]2O [PACLITAXEL]
IC50 (HGC-27): 8.4 nM | IC50 (BGC-823): 1.3 nM | IC50 (MGC-803 [16]): 3.8 nM | IC50 (GES1): 7.9 nM | IC50 (AGS): 53 nM
